Data on four compounds can be found in patent publication US10799464B2, “Delivery systems” (Textile-Based Delivery, Inc., priority 2014, dated 2020).

The nature of data set [1]: Release test on fabric swatches after washing or dyeing (retention of active), absorbance at 280 nm. It is filed as physicochemical. As for the experimental part:
This Example provides exemplary release tests on fabrics from yarns of the disclosure. These release measurements were performed on small swatches of fabric produced from yarn of the disclosure, and washed or otherwise stressed before release testing. Release was used to quantify how much active is retained intact after the stress. No coating was necessary for this test. Retention of active through stresses such as washes and scouring is a key distinguishing benefit of yarns of this disclosure and enables medicated fabrics that can be applied in a wide range of applications that demand washability in order to be commercially viable.
(§1) Aspirin (acetylsalicylic acid) was ground to a fine powder and dispersed at 25% wt/wt in Novagard 200-260. This was imbibed into a texturized 70 Denier nylon yarn, then plied with a textured 70 Denier nylon yarn. The yarn was then knitted into several sleeves.
Washing with hot detergent water was then done once (on swatch #2), 5 times (swatch #3), or 10 times (swatch #4). Swatch #1 was the control with zero washings. Each swatch, a fixed 1-inch square, was placed in water for release, and after two days the absorbance measured at 280 nanometers.
Another sleeve was dyed using a standard dyeing process, which included scouring at the upper limit of the normal range of temperatures in dyeing, namely 220° F. for 45 minutes. […] Over 50% potency was retained through this intense process.

A short description of data set [2]: Informal wear test of aspirin sleeve. The format is in vivo. The note with it: sleeve worn on the elbow or knee.
Text: as §1

A short description of data set [3]: Use testing of allantoin-loaded yarn. The format is in vivo. The settings on record: 25% in RTV imbibed into 40 Denier texturized nylon yarn. The source says: Allantoin, which is frequently used as an active in skin creams, was dispersed in RTV at 25%, and this matrix imbibed into a 40 Denier texturized nylon yarn. Some of this was plied with a 40 Denier nylon yarn. Another portion was air-covered with a spandex yarn.

For data set [4] the following is noted: typical topical cream, depending on the severity of pain; cited from earlier work.
Data set [5] in a line: Franz cell transdermal delivery test.
Method: This was then tested in a Franz cell apparatus (Zyleris Pharmatech) for its ability to deliver the active (arecoline) transdermally.
The test article, in this case the aforementioned arecoline-loaded fabric, was placed atop a small piece of freshly excised skin, in this case from a pig's ear; below the skin was a reservoir containing bovine serum albumin buffer to simulate blood plasma. In order to reach the reservoir, the active had to diffuse transdermally across the layer of skin. Three such Franz cells were used so that the experiment was done in triplicate. A small aliquot was drawn from each reservoir at the 24-hour point and tested for arecoline as now described.
A reference arecoline solution was prepared by dissolving approximately 3 milligrams arecoline hydrobromide (ScienceLab.com) in approximately 0.5 milliliters of bovine serum albumin buffer, for an approximate concentration of about 6 milligrams/milliliter. The reference solution was spotted alongside all three samples (labelled R7, R8 and R9) on a TLC plate at the origin. After driving out the water from the spots with heat, the spotted TLC plate was allowed to cool, then developed in 100% methanol inside a developing tank. […]

Regarding `CC(=O)Oc1ccccc1C(=O)O` [Aspirin, acetylsalicylic acid], the “Absorbance (at 280 nm)” value in data set [1] (1 wash with hot detergent water, 1-inch square swatch in water, two days) was 0.077; in data set [1] (5 washes with hot detergent water, 1-inch square swatch in water, two days), 0.038; in data set [1] (10 washes with hot detergent water, 1-inch square swatch in water, two days), 0.045; in data set [1] (Control (0 washes), 1-inch square swatch in water, two days), 0.097; in data set [1] (Dyed (scouring at 220° F. for 45 minutes)), 0.051. In addition, the “retention of the active” value in data set [1] (after 10 washings) is recorded as “about 45%”. For the same compound, the potency retained result in data set [1] (after standard dyeing process, scouring 220° F. for 45 minutes) was “Over 50%”. The “analgesia (in words)” value in data set [2] was “significant analgesia”.
With `NC(=O)NC1NC(=O)NC1=O` (stereo not drawn) [Allantoin], the “skin effect (in words)” value in data set [3] is “skin-soothing, softening effect”.
Turning to `COc1cc(CNC(=O)CCCC/C=C/C(C)C)ccc1O` [capsaicin], in data set [4], the “effective daily dose for relief in the foot, ankle, and calf” value is recorded as 0.5 to 6 mg.
As for `COC(=O)C1=CCCN(C)C1` [arecoline], the “concentration of arecoline in the reservoirs” value in data set [5] (24-hour point, uncoated fabric of polyester yarn imbibed with 10% arecoline hydrobromide in Novagard 200-260, TLC spot intensity vs reference) is given as around 5 milligrams/milliliters. In addition, the “transdermal delivery (in words)” value in data set [5] (pig ear skin Franz cell model, imbibed yarn) was “effective”.
